{
  "source": "paper PMC9606187",
  "about": "“Dual HDAC/BRD4 Inhibitors Relieves Neuropathic Pain by Attenuating Inflammatory Response in Microglia After Spared Nerve Injury” (Neurotherapeutics, 2022)",
  "key": {"SNI mice": {"tested_on": "SNI mice", "assay": "Rotarod test", "type": "in vivo", "conditions": "50 µM i.n., vs vehicle-treated SNI mice", "description": "The possible alteration of motor performance induced by each treatment was assessed by rotarod test, as previously described. The integrity of motor coordination was assessed as number of falls from the rod in 30 s."}, "HDAC1 [1]": {"tested_on": "HDAC1", "assay": "Western blot of lumbar spinal cord, HDAC1", "type": "in vivo, mice", "conditions": "SNI ipsilateral side, day 7 and 14 post-surgery, i.n.", "description": "(§1) The lumbar spinal cord was removed 7 and 14 days after surgery and 90 min after the intranasal administration of SUM52, corresponding to the peack of the effect. Samples (n = 4 for groups) were homogenized in a homogenization buffer and processed as previously described. Protein samples (40 µg of protein/sample) were separated on 10% SDS-PAGE and transferred onto nitrocellulose membranes (120 min at 100 V) using standard procedures. Membranes were blocked in PBST (PBS containing 0.1% Tween) containing 5% nonfat dry milk for 120 min. […] Blots were then extensively washed and developed using enhanced chemiluminescence detection system (Pierce, Milan, Italy) and signal intensity (pixels/mm^2) quantified (ImageJ, NIH). […] For each sample, the signal intensity was normalized to that of total protein stained by Ponceau S and the acquired images were quantified using Image Lab software. […]"}, "IBA1 (microglia marker)": {"tested_on": "IBA1 (microglia marker)", "assay": "Immunofluorescence of lumbar spinal cord, IBA1", "type": "in vivo", "conditions": "lumbar spinal cord of SNI mice, day 14", "description": "On postsurgical day 14, animals were perfused transcardially with 4% paraformaldehyde in 0.1 M phosphate buffer (PBS, pH 7.4). After perfusion, lumbar spinal cord was quickly removed and processed as previously described. Four animals per groups were used for this analysis. […] Primary antibody used was IBA1 (1:100; Santa Cruz Biotechnology Cat# sc-32725, RRID:AB_667733). After rinsing in PBS containing 0.01% Triton-X-100, sections were incubated in secondary antibodies labeled with Invitrogen Alexa Fluor 488 (490–525, 1:400; Thermo Fisher Scientific), Invitrogen Alexa Fluor 568 (578–603, 1:400; Thermo Fisher Scientific), Cruz Fluor 594 (592–614, 1:400; Santa Cruz Biotechnology) at room temperature for 2 h. Sections were coverslipped using Vectorshield mounting medium (Vector Laboratories, Burlingame, CA). A Leica DM6000B fluorescence microscope equipped with a DFC350FX digital camera with appropriate excitation and emission filters for each fluorophore was used to acquire representative images. Images were acquired with × 5 to × 40 objectives using a digital camera. The immunofluorescence intensity was calculated by ImageJ (Wayne Rasband, National Institute of Health, USA)."}, "HDAC1 [2]": {"target": "T1, HDAC1 (Homo sapiens, UniProt Q13547)", "T1 construct": "endogenous in cells; host or cells: HCT-116", "T1 sequence (Q13547 whole entry)": "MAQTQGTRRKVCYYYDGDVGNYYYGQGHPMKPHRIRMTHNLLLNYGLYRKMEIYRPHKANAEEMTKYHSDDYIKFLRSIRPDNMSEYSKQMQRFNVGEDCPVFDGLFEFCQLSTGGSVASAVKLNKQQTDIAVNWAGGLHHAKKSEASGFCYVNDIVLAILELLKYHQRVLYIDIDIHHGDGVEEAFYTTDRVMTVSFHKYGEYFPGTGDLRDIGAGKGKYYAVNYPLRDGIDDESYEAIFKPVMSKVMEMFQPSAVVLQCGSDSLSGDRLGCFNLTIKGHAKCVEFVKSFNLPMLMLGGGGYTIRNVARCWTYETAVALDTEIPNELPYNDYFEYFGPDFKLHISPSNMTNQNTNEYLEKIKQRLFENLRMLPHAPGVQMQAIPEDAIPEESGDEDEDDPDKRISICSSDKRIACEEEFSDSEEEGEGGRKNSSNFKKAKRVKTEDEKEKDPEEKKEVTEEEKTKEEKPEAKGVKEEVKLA", "assay": "HDAC1 immunoprecipitation & activity assay on treated HCT-116 cells", "type": "cell-based", "conditions": "HCT-116 cells treated at 10 µM for 12 h; in comparison with SAHA", "description": "HDAC assay: To test the inhibition activity of compounds, the HDAC1 immunoprecipitation (IP) & Activity Assay Kit (Catalog # K342-25; Biovision) was used under the protocol provided by the kit. HCT-116 cell lines were plated in 6 wells and treated with the investigated compounds at 10 µM for 12 h. After incubation, the media was removed, and the cells were washed with PBS (EuroClone) solution (2X). Then, 200 µl/well of lysis buffer with protease inhibitor was added and the cells were scraped and incubated in ice for 30 min. After centrifugation at 10,000 g for 10 min at 4 °C, the supernatant was collected. One hundred micrograms of each extract was incubated with 6 µl of Rabbit HDAC1 antibody and Rabbit IgG and the volume was reached to 500 µl with PBS with protease inhibitors. After incubation at 4 °C overnight a rotary mixer, 25 µl of the protein-A/G bead slurry, previously washed with PBS (2X), was added to the samples and incubated for 1 h at 4 °C. The beads were recovered after 3 washes with 1 ml PBS, by centrifuging at 14,000 g for ~ 10 s and used for HDAC assay.\nHDAC assay preparation: For each reaction, 168 µl reaction mix containing HDAC assay buffer and HDAC substrate was prepared, added to the sample and to background control tube, and incubated at 37 °C for 2 h. SAHA was used as a positive control. […] The fluorescence was read at Ex/Em = 380/500 nm with Tecan M1000 plate reader."}, "IL-1ß": {"tested_on": "IL-1ß", "assay": "Western blot of lumbar spinal cord, IL-1ß", "type": "in vivo, mice", "conditions": "SNI ipsilateral side, day 7 and 14", "description": "as §1"}},
  "data": [
    {"smiles": "Cc1nnc2n1-c1ccccc1C(c1ccccc1)=N[C@H]2CC(=O)NCCCCCCC(=O)NO", "note": "[SUM52, (S)-N-hydroxy-7-(2-(1-methyl-6-phenyl-4H-benzo[f][1,2,4]triazolo[4,3-a][1,4]diazepin-4-yl)acetamido)heptanamide]", "values": [
      {"measurement": "motor coordination (rotarod test)", "setting": "SNI mice", "result": "no alteration"},
      {"measurement": "spinal HDAC1 protein expression", "setting": "HDAC1 [1]", "result": "restored both epigenetic enzyme levels to control values"},
      {"measurement": "IBA1 immunostaining", "setting": "IBA1 (microglia marker)", "result": "significantly reduced"},
      {"measurement": "inhibition of HDAC1 enzymatic activity", "setting": "HDAC1 [2]", "result": "Partial inhibition"},
      {"measurement": "IL-1ß expression", "setting": "IL-1ß", "result": "drastically reduced"}
    ]}
  ]
}
